For test [1], the system named is HCT-116. Put plainly: In vitro inhibition of HCT116 (human colon) tumor cell growth. The class given is functional, cell-based.
Test [2] concerns B16. Put plainly: In vitro inhibition of B16 (murine melanoma) tumor cell growth. The note with it: Mus musculus.
Test [3] relates to HUVEC (Homo sapiens). Briefly: Inhibitory percentage in HUVEC tube formation assay at a concentration of 3 ug/mL; Inactive.
For test [4], the system named is HUVEC (Homo sapiens). Put plainly: Inhibitory percentage in HUVEC tube formation assay at a concentration of 1 ug/mL (toxic).
For test [5], the system named is HUVEC (Homo sapiens). Put plainly: Inhibitory percentage in HUVEC tube formation assay at a concentration of 3 ug/mL (toxic).
The test system of test [6] is B16. Put plainly: Concentration required for 50% reduction in B16 tumor cell growth (murine melanoma) was measured; NA denotes […].
The test system of test [7] is HCT-116. Briefly: Concentration required for 50% reduction in HCT116 tumor cell growth (Human colon) was measured; NA denotes […]. The class given is functional, cell-based.

Molecules are shown by their SMILES. Values after ≈ are worked out from the molar mass of the structure shown.

By IC50 is commonly meant the midpoint of a concentration-inhibition curve. The low end stands for greater potency, the high end for weaker potency. As for `CC(C)=CC(=O)OCc1cc(=O)oc2cc3ccccc3cc12`, the IC50 in the test with HCT-116 [1] and with B16 [2] was above 10 µg/mL throughout.
As to `COc1cc2oc(=O)cc(COC(=O)/C=C/c3ccc(Cl)cc3)c2cc1OC`, the IC50 in the test with HCT-116 [1] and in the test on B16 [2] was above 10 µg/mL each time.
For orientation: inhibition means the percentage by which the read-out fell short of the control. The low end stands for a weak effect, the high end for a strong effect. Regarding `C/C=C/C(=O)OCc1cc(=O)oc2cc(OC)c(OC)cc12`, the IC50 with HCT-116 [1] and with B16 [2] was above 10 µg/mL in each case. Besides, the inhibition at 3 µg/mL in the test with HUVEC (Homo sapiens) [3] was below 10%.
As for `COc1cc2oc(=O)cc(COC(=O)/C=C/c3ccc(N)cc3)c2cc1OC`, the 50% inhibitory concentration (IC50) with HCT-116 [1] and in the test with B16 [2] was above 10 µg/mL throughout.
As to `COc1cc2oc(=O)cc(COC(=O)/C=C/c3ccc(O)cc3)c2cc1OC`, the half-maximal inhibitory concentration (IC50) came to 5.21 µg/mL (≈ 13.6 µM) with HCT-116 [1] and 4.15 µg/mL (≈ 10.9 µM) in the test with B16 [2].
The corresponding values for `COc1cc2oc(=O)cc(COC(=O)/C=C/c3cc(OC)c(OC)c(OC)c3)c2cc1OC` are 8.31 µg/mL (≈ 18.2 µM) and 6.74 µg/mL (≈ 14.8 µM).
In the same order, the values of `Br.COc1ccc(/C=C/C(=O)OCc2cc(=O)oc3cc(OC)c(OC)cc23)cn1` are 2.43 µg/mL and 1.27 µg/mL.
Consider `COc1cc2oc(=O)cc(COC(=O)/C=C/c3ccc(OCCN(C)C)cc3)c2cc1OC.Cl`, for which the concentration for half-maximal inhibition (IC50) in the test with HCT-116 [1] and with B16 [2] was above 10 µg/mL in each case.
As to `COc1cc2oc(=O)cc(COC(=O)/C=C/c3ccccc3)c2cc1OC`, the half-inhibitory concentration (IC50) in the test on HCT-116 [1] and with B16 [2] was above 10 µg/mL each time.
On to `CC(C)=CC(=O)OCc1cc(=O)oc2ccc(Cl)cc12`, for which the 50% inhibitory concentration (IC50) in the test with HCT-116 [1] and in the test with B16 [2] was above 10 µg/mL each time.
For the molecule `COc1ccc(/C=C/C(=O)OCc2cc(O)nc3cc(OC)c(OC)cc23)cc1`, the IC50 in the test with HCT-116 [1] and in the test with B16 [2] was above 10 µg/mL in each case.
`COc1ccc2oc(=O)cc(COC(=O)C=C(C)C)c2c1`: the IC50 in the test with HCT-116 [1] and in the test on B16 [2] was above 10 µg/mL each time. In addition, the inhibition at 3 µg/mL in the test on HUVEC (Homo sapiens) [3] was below 10%.
Consider `C=CC(=O)OCc1cc(=O)oc2cc(OC)c(OC)cc12`, for which the IC50 in the test on HCT-116 [1] and with B16 [2] was above 10 µg/mL in each case. The same molecule yielded an inhibition at 3 µg/mL with HUVEC (Homo sapiens) [3] below 10%.
On to `COc1cc2oc(=O)cc(COC(=O)C=C(C)C)c2cc1OC`, for which the half-inhibitory concentration (IC50) with HCT-116 [1] and in the test on B16 [2] was above 10 µg/mL in each case.
Take `COc1ccc2c(COC(=O)C=C(C)C)cc(=O)oc2c1`: the IC50 in the test with HCT-116 [1] and in the test on B16 [2] was above 10 µg/mL throughout. The same molecule showed an inhibition at 3 µg/mL with HUVEC (Homo sapiens) [3] below 10%.
`COc1ccc(/C=C/C(=O)OCc2cc(=O)oc3cc(OC)c(OC)cc23)cc1`: the results for the 50% inhibitory concentration (IC50) in the test on HCT-116 [1] and with B16 [2] were 1.02 µg/mL (≈ 2.57 µM) and 0.96 µg/mL (≈ 2.42 µM), respectively. The molecule also returned an inhibition at 1 µg/mL with HUVEC (Homo sapiens) [4] of 100%.
As for `CC(C)=CC(=O)OCc1cc(=O)oc2cc3c(cc12)OCO3`, the half-inhibitory concentration (IC50) in the test on HCT-116 [1] and in the test on B16 [2] was above 10 µg/mL in each case.
On to `COc1ccc(/C=C/C(=O)OCc2cc(=O)oc3cc(OC)c(OC)cc23)cc1O`, for which the results for the half-inhibitory concentration (IC50) with HCT-116 [1] and in the test with B16 [2] were 3.41 µg/mL (≈ 8.27 µM) and 3 µg/mL (≈ 7.27 µM), respectively. For the same molecule, in the test with HUVEC (Homo sapiens) [5], testing at 3 µg/mL gave an inhibition of 35.5%.
On to `COc1cccc2c1C(=O)c1c(O)c3c(c(O)c1C2=O)C[C@@](O)(C(=O)CO)C[C@@H]3O[C@H]1C[C@H](N)[C@H](O)[C@H](C)O1` [DOXORUBICIN], for which the half-inhibitory concentration (IC50) with HCT-116 [1] was 0.11 µg/mL (≈ 0.202 µM); in the test with B16 [2], 0.09 µg/mL (≈ 0.166 µM).
For the molecule `Cc1ccc(C(=O)Nc2ccc(S(=O)(=O)O)c3cc(S(=O)(=O)O)cc(S(=O)(=O)O)c23)cc1NC(=O)c1cccc(NC(=O)Nc2cccc(C(=O)Nc3cc(C(=O)Nc4ccc(S(=O)(=O)O)c5cc(S(=O)(=O)O)cc(S(=O)(=O)O)c45)ccc3C)c2)c1` [SURAMIN], the IC50 result in the test with B16 [6] and with HCT-116 [7] was “Not Active” each time.
